In ChEMBL document CHEMBL4825714, “Hinge Binder Scaffold Hopping Identifies Potent Calcium/Calmodulin-Dependent Protein Kinase Kinase 2 (CAMKK2) Inhibitor Chemotypes” (J Med Chem, 2021) one finds solubility data, which are given here for ten compounds.

Each structure is given as a SMILES string. ≈ marks a conversion by molar mass, not a printed value.

What is called solubility is the dissolved amount per volume that the medium holds. Lower therefore signals a poorly soluble substance.

The data set is described as follows: Solubility of the compound. Format: physicochemical.
As for `O=C(O)c1ccc(-c2ncnc3ccc(-c4ccccc4)cc23)cc1C1CCCC1`, the concentration in solution (solubility) came to 70.4 µg/mL (≈ 178 µM).

In the case of `O=C(O)c1ccc(-c2cnn3ccc(-c4ccccc4)cc23)cc1C1CCCC1`, the concentration in solution (solubility) was 42 µg/mL (≈ 110 µM). Compared with the last compound, the solubility is about 1.7-fold lower.

Turning to `O=C(O)c1ccc(-c2ccnc3ccccc23)cc1C1CCCC1`, the solubility amounted to 64.4 µg/mL (≈ 203 µM).

The compound `O=C(O)c1ccc(-c2ncnc3sccc23)cc1C1CCCC1` had a solubility of 62.6 µg/mL (≈ 193 µM).

With `O=C(O)c1ccc(-c2ccnc(Nc3ccccc3)n2)cc1C1CCCC1`, the solubility turned out to be 10.6 µg/mL (≈ 29.5 µM).

For the compound `Cn1ccc2c(-c3ccc(C(=O)O)c(C4CCCC4)c3)ccnc21`, the concentration in solution (solubility) came to 40 µg/mL (≈ 125 µM).

`O=C(O)c1ccc(-c2csc3ncc(-c4ccccc4)cc23)cc1C1CCCC1`: the solubility turned out to be 1.5 µg/mL (≈ 3.75 µM).

Take `O=C(O)c1ccc(-c2ccncn2)cc1C1CCCC1`: the solubility came to 19.4 µg/mL (≈ 72.3 µM).

The compound `O=C(O)c1ccc(-c2ccnc3ccc(-c4ccccc4)cc23)cc1C1CCCC1` displayed a solubility of 38 µg/mL (≈ 96.6 µM).

For the compound `O=C(O)c1ccc(-c2c[nH]c3ncc(-c4ccccc4)cc23)cc1C1CCCC1` [GSK-650394], the solubility was 2 µg/mL (≈ 5.23 µM).
